How the values were obtained:
[1] = system: porcine kidney transplant, ischemia reperfusion injury; experiment: Porcine allogeneic survival transplantation model (SM); format: in vivo, pig; settings: for IFNγ level / IL-1α level / IL-1β level / IL-2 level / IL-4 level / IL-6 level / IL-10 level / IL-12 level / IL-18 level: vs untreated control kidneys
Protocol: During and after surgery, systemic blood was collected for up to 4 days and analyzed for creatinine, sodium, potassium and phosphate (Section for Clinical Chemistry, Uppsala University Hospital).
Multiplex protein analyses using multiplex Luminex xMAP Technology (Millipore Corporation, Billerica, MA, USA) were performed using a porcine specific kit for 12 cytokines/chemokines: Interferon-gamma (INFγ), Interleukins IL-1b, IL-2, IL-1a, IL-1RA, IL-4, IL-6, IL-10, IL-18, IL-8, IL-12, and TNF. Plasma was incubated with agent-specific-coloured magnetic beads, thereafter with detection antibodies and streptavidin-phycoerythrin (Millipore Corporation). Plates were measured using a MAGPIX instrument (Luminex Corporation, Austin, TX, USA). Raw data [median fluorescence intensity (MFI)] was translated into protein concentration (ng/ml) using a standard curve.
These studies were approved by the Ethics Committee for Animal Experimentation, Uppsala, Sweden, Dnr C123/14. For each of these studies (SM and CLSM) five donor pigs and 10 recipient pigs of both sexes were used. All pigs were certified SPF pigs (Yorkshire×Hampshire) and bred at Lövsta University herd, SLU, Sweden. At arrival to SLU the pigs were 8 weeks old.
For the SM study, the pigs were selected after typing for Swine Leucocyte Antigen (SLA) class 1 in the following manner: the donor pigs were obtained from two litters and not related to any of the recipients. The recipient pigs were siblings, matched in pairs according to SLA class 1 (see below). For the CLSM study, all recipient pigs were siblings and not related to the donors, but these the pigs were not SLA-typed.
SM study: the kidneys were retrieved en bloc using the same procedure as in the ANSM study. Also here, the kidneys were exposed to an initial warm ischemia of less than 5 minutes. […] Post preservation, the kidneys were randomized to receive either PEG-phospholipid (15 mL, 2 mg/mL) or HTK solution at +4° C. by injection through the renal artery after clamping of the renal vein. During a 40-60 min incubation, the renal artery and vein were maintained clamped. The SM study comprised 6 kidneys treated with PEG-phospholipid and 4 control kidneys.
The recipient pigs underwent allogeneic single kidney transplantation. Through a 15-20 cm abdominal midline incision, the iliac vessels in the right iliac fossa were identified and carefully mobilized. The distal segment of the vena cava as well as the iliac artery (from its emergence from the aorta) were mobilized, sealing the surrounding lymphoid tissue. The renal graft was thereafter placed in the right iliac fossa in the proximity of the iliac vessels. The renal vein and artery were trimmed, and subsequently anastomosed in an end-to-side fashion to the recipient's right iliac artery and distal vena cava using a polypropylene 7/0 running suture (PROLENE®, Ethicon, US). The ureters were implanted by extravesical ureteroneocystostomy to the top of the bladder by 6-0 polydioxanone suture (PDS®, Ethicon, US). Thereafter, bilateral nephrectomy of the native kidneys was performed. The midline incision was closed by running a 2/0 polyglactin (VICRYL®, Ethicon, US) fascia suture and skin clips. No anticoagulants were given to the recipient. After the inguinal transplantation was completed, urine was collected directly from the bladder by cystocentesis, showing that all of the transplanted kidneys had started to produce urine soon after reperfusion. By using a urine stick the sample was analyzed for proteinurea and hematuria. The mean duration of the surgery was 2.5 hours (1.75-3.25 hours).
During and after transplantation, EDTA blood was collected from the local renal vein at 0, 15, 30 and 60 min after reperfusion, and systemic blood samples were obtained at 1, 2, 3, and 4 days after surgery. […]

[2] = system: CD31; experiment: Masking of antigens on HUVECs by coating with PEG-phospholipid, flow cytometry; format: cell-based, human; settings: HUVEC, 0.5 mg/ml, 45 mins RT
Protocol: (§1) One hundred μL of HUVEC cell pellet (5×10^4 cells) were incubated in 0.5 mg/ml of PEG-phospholipid solution (final concentration, polyethylene glycol-phospholipid with PEG of 5 kDa (PEG-phospholipid) in PBS, SUNBRIGHT® PP-050CN, N-(methylpolyoxyethylene oxycarbonyl)-1,2-dipalmitoyl-sn-glycero-3-phosphoethanolamine, sodium salt, NOF Corp., Japan) or PBS for 45 mins at RT. Then, the cells were incubated with 5 μg/mL of FITC labelled antibodies for 15 min at RT: CD31 antibody (5 μg/ml) or isotype control Ab-FITC (BD biosciences) or with rabbit anti von Willebrand Factor (vWF) with rabbit IgG as control, both visualized by Alexa 488 goat anti-rabbit antibodies as given in Table 1.
(§2) Post analysis processing was carried out in FlowJo.

[3] = system: von Willebrand Factor (vWF); experiment: as above; format: cell-based, human; settings: HUVEC, 0.5 mg/ml, 45 mins RT
Protocol: as §1, §2

[4] = pig, in vivo
Protocol: Before surgery for both long term survival studies (SM and CLSM), samples were collected in EDTA tubes from both donors and recipients for analyses of total and differential white blood cell counts and hematology (EPK, Hb, EVF, MCV, MCHC, reticulocytes, thrombocytes). Plasma samples were analyzed for aspartate amino transferase (ASAT), alanine aminotransferase (ALAT), γ-glutamyltransferase (GT), glutamate dehydrogenase (GLDH), and creatinine at the Section of Clinical Chemistry, SLU, Uppsala.
Clinical appearance was assessed several times each day after surgery and a thorough clinical examination conducted once daily. The urinary bladders were examined every day at 9 am and […] to determine if the transplanted kidney produced urine. When possible, free-flow urine was collected and evaluated macroscopically, and density, pH, blood and protein were measured.
Each kidney was examined once after transplantation by ultrasound (Logiq e R6, GE Healthcare, Wauwatosa, U.S.A.) using linear (10 MHZ) and curvilinear (4 MHZ) probes. The length and echogenicity of the kidney as well as the corticomedullary definition were estimated. Furthermore, it was assessed whether the renal pelvic region was dilated. The blood flow in the kidney was evaluated using color Doppler. […]

[5] = 60 min following transplantation
[6] = 4 days following transplantation
[7] = kidney vein, 5 min, in most cases
[8] = up to 4 days post-transplantation

N-(methylpolyoxyethylene oxycarbonyl)-1,2-dipalmitoyl-sn-glycero-3-phosphoethanolamine [PEG-phospholipid]
substantially lower: C3a in blood samples [1, 8] | TAT in blood samples [1, 8] | sC5b-9 in blood samples [1, 8]
significantly lower levels: IFNγ level [1, 6] | IL-1α level [1, 6] | IL-1β level [1, 6] | IL-2 level [1, 6] | IL-4 level [1, 6] | IL-6 level [1, 6] | IL-10 level [1, 6] | IL-12 level [1, 6] | IL-18 level [1, 6]
unaffected: IL-1RA protein level ([1]; after 96 hours) | IL-8 protein level ([1]; after 96 hours)
lower binding: binding of C3b in renal biopsies ([1]; 5 min and necropsy day 4)
did not decrease: detection of vWF [3]
suppressed: IL-1a protein level [1, 7] | IL-12 protein level [1, 7]
No toxicity or safety concerns: toxicity or safety concerns regarding clinical, laboratory, or pathology parameters [4]
not any significant difference: IFNγ level [1, 5] | IL-1α level [1, 5] | IL-1β level [1, 5] | IL-2 level [1, 5] | IL-4 level [1, 5] | IL-6 level [1, 5] | IL-10 level [1, 5] | IL-12 level [1, 5] | IL-18 level [1, 5]
< 20%: masking of CD31 [2]
significantly lower: creatinine levels post-transplantation ([1]; recipients' blood, 24-96 hours, vs control grafts)

Reference: patent publication US20250177448A1, “NEW USE OF PEG-PHOSPHOLIPID MOLECULES” (ICOAT MEDICAL AB, priority 2022, published 2025)
